Measurements: US20140248342A1, “Fe(III) 2,4-Dioxo-1-Carbonyl Complexes For Treatment And Prophylaxis Of Iron Deficiency Symptoms And Iron Deficiency Anaemias” (Vifor (International) AG, priority 2011, published 2014)
Where two headings read alike, the source gives them in different places.

What was measured:
[1] = test system: Sprague-Dawley rats; details: cited from earlier work; for toxicity in animal studies (in words): literature report London, Smith 1983
[2] = test system: Male NMRI (SPF) mice fed a low-iron diet; experiment: Iron utilization in mouse model (low-iron diet, hemoglobin and body weight increase); type: in vivo; details: stomach tube, 2 mg iron/kg body weight/day, days 1-5 and 8-12; utilization on day 15 calculated from hemoglobin and body weight increase
Procedure: The excellent Fe utilizations that can be accomplished through the Fe complexes according to the invention were measured by means of the following mouse model.
Male NMRI (SPF) mice (approximately 3 weeks old) were fed a low-iron diet (approx. 5 ppm iron) for approximately 3 weeks. The iron complexes were then administered to them by means of a stomach tube (2 mg iron/kg body weight/day) 2 times a day for 5 days, with an interruption of 2 days (days 1-5 and 8-12). Utilization on day 15 was calculated from the hemoglobin increase and the body weight increase in accordance with the formula
0.07=Factor for 70 ml blood per kg body weight (BW)
Hb1=Hemoglobin level (g/l) on day 1 Hb2(3)=Hemoglobin level (g/l) on day 8 (or 15) BW4=body weight (g) on day 1 BW9(14)=body weight (g) on day 8 (or 15) Hb1 Control=average hemoglobin level (g/l) on day 1 in the control group, Hb2(3) Control=average hemoglobin level (g/l) on day 8 (or 15) in the control group, BW4 Control=average body weight (g) on day 1 in the control group, BW9(14) Control=average body weight (g) on day 8 (or 15) in the control group, Fe Dos.=entire administered iron (mg Fe) over 5 or 10 days,
Δ Utilization=Fe tot. utilized (examined group)−Fe ut. Control group, utilized from food, (mg Fe)

[3] = test system: Sprague-Dawley rats; experiment: Toxicity compared with Fe(acac)3: oral administration, single dose, observation until 24 h; type: in vivo; details: for Number of dead animals after 24 h / animals still alive after 24 hours: 6 Sprague-Dawley rats; for toxicological findings after 24 hours: Sprague-Dawley rats
From the text: The toxicity of the novel iron complex compounds was compared with that of tris(acetylacetonate)iron.

Molecule	Utilization n 15 d (abs. %) [2] [abs. %]	other results
CC(=O)/C=C(/C)[O-].CC(=O)/C=C(/C)[O-].CC(=O)/C=C(/C)[O-].[Fe+3] [Fe(Acac)3, tris(acetylacetonate)iron]	–	toxicity in animal studies (in words) [1]: highly toxic; toxicity in animal studies (in words) ([1]; listed as iron(III)-(acetylacetonate)3): very toxic; Number of dead animals after 24 h ([1]; single oral dose 1000 mg/kg iron complex (160 mg/kg iron), 10 animals, Lit. 1): 6
Tris-(1-(morpholin-4-yl)pentane-1,2,4-trione)-iron(III)-complex [Example 12]	75	–
Tris-(2,4-dioxopentanamide)-iron(III)-complex [Example 3]	82	Number of dead animals after 24 h ([3]; single oral dose 1400 mg/kg iron complex (170 mg/kg iron)): 0; animals still alive after 24 hours ([3]; single oral dose 1400 mg/kg): 6; toxicological findings after 24 hours ([3]; single oral dose 1400 mg/kg): absolutely no toxicological findings
Tris-(5-methyl-1-(morpholin-4-yl)hexane-1,2,4-trione)-iron(III)-complex [Example 11]	51	–
Tris-(N,N,5,5-tetramethyl-2,4-dioxohexanamide)-iron(III)-complex [Example 8]	72	–
Tris-(N,N,5,-trimethyl-2,4-dioxohexanamid)-iron(III)-complex [Example 9]	89	–
Tris-(ethyl 2,4-dioxopentanoate)-iron(III)-complex [Example 1]	106	Number of dead animals after 24 h ([3]; single oral dose 1600 mg/kg iron complex (170 mg/kg iron)): 0; animals still alive after 24 hours ([3]; single oral dose 1600 mg/kg): 6; toxicological findings after 24 hours ([3]; single oral dose 1600 mg/kg): absolutely no toxicological findings
Tris-(ethyl oxo(2-oxocyclohexyl)acetate)-iron(III)-complex [Example 6]	65	–
Tris-(ethyl oxo(2-oxocyclopentyl)acetate)-iron(III)-complex [Example 5]	59	–
Tris-(methyl 2,4-dioxopentanoate)-iron(III)-complex [Example 2]	94	–
